IC50 data for two compounds are collected here from PubChem BioAssay AID652230 (The Scripps Research Institute Molecular Screening Center, 2013).

Activity calls are given as the source filed them.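 How the source made its calls: active means IC50 below 10 µM for blocking the phosphatase PP5; inactive means IC50 at or above 10 µM.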

The assay deals with Serine/threonine-protein phosphatase 5 (Homo sapiens) (UniProt P53041). The experiment in a line: PP5 catalytic domain inhibition, concentration series – biochemical, fluorescence, OMFP substrate, powder samples, set 2, selectivity assay for PP1 inhibitor project, dose response (AID 652230). The conditions noted are these: purified PP5c, OMFP dephosphorylation.
Chain of Serine/threonine-protein phosphatase 5 (Homo sapiens) (P53041 whole entry, looked up, the tested form may be a part): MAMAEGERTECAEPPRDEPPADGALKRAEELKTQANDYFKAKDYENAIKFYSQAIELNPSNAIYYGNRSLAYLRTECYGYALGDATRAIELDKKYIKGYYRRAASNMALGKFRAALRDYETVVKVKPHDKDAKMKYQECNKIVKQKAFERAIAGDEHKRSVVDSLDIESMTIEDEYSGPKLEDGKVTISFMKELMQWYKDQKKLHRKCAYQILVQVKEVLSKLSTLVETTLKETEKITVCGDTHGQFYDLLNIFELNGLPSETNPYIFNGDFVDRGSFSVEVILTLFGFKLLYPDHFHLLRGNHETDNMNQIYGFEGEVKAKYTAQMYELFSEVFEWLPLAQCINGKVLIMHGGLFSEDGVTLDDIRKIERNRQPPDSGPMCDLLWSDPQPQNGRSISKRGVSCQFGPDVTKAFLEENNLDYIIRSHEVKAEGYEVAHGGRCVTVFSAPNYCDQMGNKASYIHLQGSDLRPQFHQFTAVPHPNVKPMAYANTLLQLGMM

In the case of `CN1CCN([C@H](c2ncccn2)c2ccc3cccnc3c2O)CC1`, the IC50 result was “inactive”.
The value for `CN1CCN([C@@H](c2ncccn2)c2ccc3cccnc3c2O)CC1` was “inactive”.
